Target: T1, NLRP3 (Homo sapiens, UniProt Q96P20)
T1 construct: Seed THP-1 cells (25,000 cells/well) containing 1.0 μg/ml LPS; host or cells: THP-1 cells, LPS-primed, nigericin-stimulated
Test: THP-1 cells pyroptosis assay (LPS-primed, nigericin-stimulated, resazurin readout)
Assay type: cell-based
Conditions: 1 μg/ml LPS, 5 μM nigericin
Description: THP-1 cells (ATCC #TIB-202) were grown in RPMI containing L-glutamine (Gibco #11835) supplemented with 1 mM sodium pyruvate (Sigma #S8636) and penicillin (100 units/ml)/streptomycin (0.1 mg/ml) (Sigma #P4333) in 10% Fetal Bovine Serum (FBS) (Sigma #F0804). The cells were routinely passaged and grown to confluency (˜10^6 cells/ml). On the day of the experiment, THP-1 cells were harvested and resuspended into RPMI medium (without FBS). The cells were then counted and viability (>90%) checked by Trypan blue (Sigma #T8154). Appropriate dilutions were made to give a concentration of 625,000 cells/ml. To this diluted cell solution was added LPS (Sigma #L4524) to give a 1 μg/ml Final Assay Concentration (FAC). 40 μl of the final preparation was aliquoted into each well of a 96-well plate. The plate thus prepared was used for compound screening.
The following method step-by-step assay was followed for compound screening. • 1. Seed THP-1 cells (25,000 cells/well) containing 1.0 μg/ml LPS in 40 μl of RPMI medium (without FBS) in 96-well, black walled, clear bottom cell culture plates coated with poly-D-lysine (VWR #734-0317) • 2. Add 5 μl compound (8 points half-log dilution, with 10 μM top dose) or vehicle (DMSO 0.1% FAC) to the appropriate wells • 3. Incubate for 3 hrs at 37° C. in 5% CO2 • 4. […] Plates were read in an Envision reader at Ex 560 nm and Em 590 nm • 9. […]

T1 sequence (Q96P20 whole entry): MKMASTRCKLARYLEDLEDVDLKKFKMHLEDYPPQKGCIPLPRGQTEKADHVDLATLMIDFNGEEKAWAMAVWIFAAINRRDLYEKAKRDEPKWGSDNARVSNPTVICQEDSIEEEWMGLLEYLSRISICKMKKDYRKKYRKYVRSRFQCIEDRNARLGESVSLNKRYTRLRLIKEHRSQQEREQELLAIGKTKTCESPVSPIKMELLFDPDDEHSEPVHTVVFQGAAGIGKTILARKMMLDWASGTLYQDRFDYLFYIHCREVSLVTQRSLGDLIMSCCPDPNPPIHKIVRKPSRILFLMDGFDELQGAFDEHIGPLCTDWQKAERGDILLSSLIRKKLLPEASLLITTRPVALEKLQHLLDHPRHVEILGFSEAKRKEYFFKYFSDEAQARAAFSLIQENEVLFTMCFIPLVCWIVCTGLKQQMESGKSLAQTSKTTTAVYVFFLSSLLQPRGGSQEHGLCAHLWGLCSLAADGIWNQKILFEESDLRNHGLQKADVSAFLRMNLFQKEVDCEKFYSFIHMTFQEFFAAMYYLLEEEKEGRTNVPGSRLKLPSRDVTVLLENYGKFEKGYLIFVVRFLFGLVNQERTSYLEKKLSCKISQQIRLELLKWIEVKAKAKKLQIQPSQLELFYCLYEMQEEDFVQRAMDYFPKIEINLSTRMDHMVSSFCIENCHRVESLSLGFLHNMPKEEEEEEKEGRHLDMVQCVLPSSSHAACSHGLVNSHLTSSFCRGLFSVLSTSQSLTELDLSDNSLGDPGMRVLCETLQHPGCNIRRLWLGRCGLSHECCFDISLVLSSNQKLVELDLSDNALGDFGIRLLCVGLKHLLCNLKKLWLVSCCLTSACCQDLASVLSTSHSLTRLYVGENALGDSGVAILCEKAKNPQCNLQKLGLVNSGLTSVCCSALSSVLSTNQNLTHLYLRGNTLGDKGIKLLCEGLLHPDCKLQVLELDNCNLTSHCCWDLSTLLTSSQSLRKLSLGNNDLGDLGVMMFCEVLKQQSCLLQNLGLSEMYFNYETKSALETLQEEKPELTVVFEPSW

SMILES | IC50 [µM]
Cn1nc(S(=O)(=O)NC(=O)Nc2c3c(c(C#N)c4c2CCC4)CCC3)cc1C(C)(C)O [Example 1, N-((8-Cyano-1,2,3,5,6,7-hexahydro-s-indacen-4-yl)carbamoyl)-5-(2-hydroxypropan-2-yl)-1-methyl-1H-pyrazole-3-sulfonamide] | 0.16 to 0.64
Cn1nc(S(=O)(=O)NC(=O)Nc2c3c(c(Br)c4c2CCC4)CCC3)cc1C(C)(C)O [Example 2, N-((8-Bromo-1,2,3,5,6,7-hexahydro-s-indacen-4-yl)carbamoyl)-5-(2-hydroxypropan-2-yl)-1-methyl-1H-pyrazole-3-sulfonamide] | ≤ 0.16
